Measurements as given in patent US8796302B2 (priority 2004, dated 2014).

What was measured:
[1] = test system: dopaminergic neurons in rat primary mesencephalic neuron-glia cultures; assay: [3H]DA uptake in LPS-treated mesencephalic neuron-glia cultures; type: cell-based; settings: LPS 5 ng/ml, 7 days, LPS alone 40.1 ± 3.2; for DA uptake, LPS + Peptide 10^−13: peptide 10^−13, 30 min pretreatment; for DA uptake, LPS + Peptide 10^−14: peptide 10^−14, 30 min pretreatment; for DA uptake, LPS + Peptide 10^−15: peptide 10^−15, 30 min pretreatment
Protocol: Neuron-glia cultures were prepared from the ventral mesencephalic tissues of embryonic day 13-14 Fisher F344 rats or day 12-13 wild-type C57BL/6J (gp91phox^+/+) mice. Dissociated cells were seeded at 1×10^5/well and 5×10^5/well to poly-D-lysine-coated 96-well and 24-well plates, respectively. Cells were maintained at about 37° C. in a humidified atmosphere of 5% CO2 and 95% air, in minimal essential medium (MEM) containing 10% fetal bovine serum (FBS), 10% horse serum (HS), 1 gm/l glucose, 2 mM L-glutamine, 1 mM sodium pyruvate, 100 μM nonessential amino acids, 50 U/ml penicillin, and 50 μg/ml streptomycin. Seven-day-old cultures were used for treatment.
Dextromethorphan (obtained from Sigma-Aldrich (St. Louis, Mo.) as dextromethorphan hydrobromide) was freshly prepared as a stock solution (1 mM) in ddH2O and sterile-filtered right before use. For treatment of the cultures, the DM was serially diluted (10×) with fresh culture medium containing 2% of fetal bovine and horse serum. The neuron-glia cultures were pretreated with 10^−5-10^−17M DM 30 minutes prior to treatment with 10 ng/ml of LPS.
Seven days after treatment, the degeneration of dopaminergic neurons was assessed by [^3H]-dopamine (DA) uptake assays. The [^3H]-DA uptake assays were performed as follows. Cultures were washed twice with warm Krebs-Ringer buffer (KRB, 16 mM sodium phosphate, 119 mM NaCl, 4.7 mM KCl, 1.8 mM CaCl2, 1.2 mM MgSO4, 1.3 mM EDTA, and 5.6 mM glucose; pH7.4) and then incubated for about 20 minutes at about 37° C. with 1 μM [^3H]-DA in KRB in order to allow for the uptake of DA. Afterwards, the cultures were washed (three times) with ice-cold KRB and the cells were collected in 1 N NaOH. Radioactivity was determined by liquid scintillation counting.
This example tests whether or not post-treatment with DM is still neuroprotective in LPS-induced neurotoxicity. Neuron-glia co-cultures as prepared in Example 1 were first treated with LPS (20 ng/ml) for twelve hours, and then LPS was removed by removing the media from the cultures and washing twice with PBS. Different concentrations of DM (10^−5, 10^−10, and 10^−14 M) were then added to the cultures and incubation was continued for another 6 or 7 days. The DA uptake and the superoxide production were measured as in Example 1 and 5.
Neuron-glia cell cultures were prepared as in Example 1, and pretreated with the various peptide fragments of Table 1 (peptide fragments were obtained from BACHEM) for 30 minutes followed by addition of 5 ng/ml of LPS. DA neurotoxicity was measured as an Example 1 at 7 days post treatment.
DA neurotoxicity was measured at 7 days post treatment as in Example 1. Dopaminergic neuronal death was determined at 7 days post treatment using immunocytochemical staining as in Example 2.
Neuron-glia cultures were prepared from the ventral mesencephalic tissues of embryonic day 13-14 rats. Dissociated cells were seeded at 1×10^5/well and 5×10^5/well to poly-D-lysine-coated 96-well and 24-well plates, respectively.

[2] = test system: dopaminergic neurons in rat primary mesencephalic neuron-glia cultures; assay: DA uptake / TH-IR count in neuron-glia cultures without toxin (spontaneous DA neuronal death, neurotrophic effect); type: cell-based; settings: sodium butyrate, indicated concentrations, 7 days
Protocol: In Example 23, [^3H]DA uptake assay and immunohistochemical analysis for TH-IR neurons were used to assess the viability of DA neurons in rat primary mesencephalic neuron-glia cultures in which approximately 1% of the neurons are dopaminergic. [^3H]DA uptake assays were performed as described in Example 1.
Rat primary mesencephalic neuron-glia cultures were prepared from the ventral mesencephalic tissues of embryonic day 13-14 Fisher 344 rats. Dissociated cells were seeded at a density of 5×10^5/well to poly-D-lysine-precoated 24-well plates. Cells were maintained at 37° C. in a humidified atmosphere of 5% CO2 and 95% air, in minimal essential medium containing 10% fetal bovine serum (FBS), 10% horse serum, 1 gm/l glucose, 2 mM L-glutamine, 1 mM sodium pyruvate, 100 μM non-essential amino acids, 50 U/ml penicillin, and 50 μg/ml streptomycin. Unless otherwise indicated, seven-day-old cultures were used for treatment.
Seven days after seeding, each well was treated with indicated concentration of VPA or its vehicle. Seven days after treatment, the viability of dopaminergic neurons was assessed by [^3H]DA uptake assays. Quantified results are expressed as mean±SEM of percentage of vehicle-treated cultures from three experiments performed in duplicate. *, p<0.05 compared with the corresponding vehicle-treated control cultures.
Next, the rat primary mesencephalic neuron-glia cultures were treated with 0.6 mM VPA for various times to determine the treatment time-dependency. Rat primary mesencephalic neuron-glia cultures in a 24-well plate were treated with 0.6 mM VPA or its vehicle for indicated time 7 days after seeding. The viability of dopaminergic neurons was assessed by [^3H]DA uptake assays, shown in FIG. 37 or counting of TH-IR neurons, shown in FIG. 38. Quantified results are expressed as mean±SEM of percentage of vehicle-treated control cultures from three experiments performed in duplicate. *, p<0.05 compared with the corresponding vehicle-treated control cultures. […] VPA time-dependently induces survival-promoting effects against spontaneous DA neuronal death in rat primary mesencephalic neuron-glia cultures.
Rat primary mesencephalic neuron-glia cultures seeded in a 24-well culture plate at density of 5×10^5 per well were treated with indicated concentrations of sodium butyrate or its vehicle 7 days after seeding. The viability of dopaminergic neurons was assessed by DA uptake assays 7 days after sodium butyrate addition.
Mesencephalic neuron-glia cultures, prepared as described above, were pretreated with vehicle or 3-HM (1-5 μM) before the treatment of LPS (10 ng/ml). Seven days later, the degeneration of dopaminergic neurons was determined by the functional assay of [^3H]DA uptake and by the morphometric measurement of dopaminergic neurons following immunostaining with an anti-TH antibody. [^3H]DA and immunostaining are performed as described above.

[3] = test system: dopaminergic neurons in mesencephalic neuron-enriched cultures; assay: [3H]DA uptake in neuron-enriched cultures (direct, conditioned media, reconstituted); type: cell-based, rat; settings: neuron-enriched cultures, 7 days; drug 0.6 mM or conditioned medium
Protocol: Mixed-glia cultures were first prepared from brains of 1-day-old Fisher 344 rat pups, as described previously (Liu, et al. 2001). Mechanically dissociated brain cells (5×10^7) were seeded onto 150 cm^2 culture flasks in Dulbecco's modified Eagle's medium containing 10% heat-inactivated FBS, 2 mM L-glutamine, 1 mM sodium pyruvate, 100 μM non-essential amino acids, 50 U/ml penicillin, and 50 μg/ml streptomycin. The cultures were maintained at 37° C. in a humidified atmosphere of 5% CO2 and 95% air, and medium was replenished 4 days after the initial seeding. Upon reaching confluence (usually 12-14 days later), microglia were detached from astroglia by shaking the flasks for 5 hours at 180 rpm. Astroglia were then detached with trypsin-EDTA and seeded in the same culture medium. After five or more consecutive passages, cells were seeded onto 24-well plates (10^5/well) for experiments. Immunocytochemical staining of the astroglia enriched cultures with either anti-GFAP or anti-OX-42 antibody indicated astroglial purity of greater than 98% and less than 2% of microglia contamination.
Conditioned medium derived from rat primary astroglial cultures treated with vehicle (ACM) or 0.6 mM VPA (ACM-VPA) were harvested after 12, 24 and 48 hours of incubation. Midbrain neuron-enriched cultures seeded in 24-well plates at a density of 5×10^5 cells/well were treated with vehicle, VPA, ACM or ACM-VPA for 7 days. Neurotrophic effect was quantified by [^3H]DA uptake assay.
Rat mesencephalic neuron-enriched cultures are prepared from dissociated ventral mesencephalic cells from embryonic day 13-14 Fisher 344 rats were seeded first at a density of 5×10^5/well to poly-D-lysine-precoated 24-well culture plates. […] Three days later, the culture medium was replaced with the maintenance medium. Routinely, the seven-day-old neuron-enriched cultures were used for treatment. […] Of the Neu-N immunoractive neurons, 2.7-3.9% was TH-IR neurons.
To explore whether astroglial cells are also the main target of sodium butyrate-induced neurotrophic effect, we prepared media conditioned by incubation of astroglial cultures in the absence or presence 0.6 mM sodium butyrate. Conditioned medium derived from rat primary astroglial cultures treated with vehicle (ACM) or 0.6 mM sodium butyrate (ACM-Sodium butyrate) were harvested after 48 hours of incubation. Midbrain neuron-enriched cultures seeded in 24-well plates at a density of 5×10^5 cells/well were treated with vehicle, sodium butyrate, ACM or ACM-Sodium butyrate for 7 days. Seven days after treatment, neurotrophic effect for dopaminergic neurons was assessed by [^3H]DA uptake assays.
Various concentrations of 3-HM (0.1-5 μM) or vehicle were added to the following different cell cultures: neuron-enriched cultures (A); reconstituted cultures by adding 10% and 20% (5×10^4/well and 1×10^5/well) of microglia to the neuron-enriched cultures (B); reconstituted cultures by adding 40% and 50% (2×10^5/well and 2.5×10^5/well) of astroglia to the neuron-enriched cultures (C). Cultures are prepared as described in Example 25. The [^3H]DA uptake measurements were performed […] after treatment. Results were expressed as a percentage of the vehicle-treated control cultures and were the mean±SE from five (A) and four (B,C) independent experiments in triplicate. *P<0.05 and **P, 0.001 compared with the vehicle-treated control cultures. #P<0.05 compared with the augmented cultures with 40% astroglia. N, neuron-enriched cultures; N+10% (20%) MG: 10% (20%) of microglia were added back to the neuron-enriched cultures; N+40% (50%) AS: 40% (50%) of astroglia were added back to the neuron-enriched cultures.
To confirm the possible role of astroglia in the neurotrophic effect of 3-HM, conditioned media from astroglia-enriched cultures (prepared as described above) treated with either 3-HM (1-5 μM) or vehicle for 24 hours were prepared. […]

Tyr-Gly-Gly-Phe-Leu-Arg-Arg-Ile-Arg-Pro-Lys-Leu-Lys-Trp-Asp-Asn-Gln (YGGFLRRIRPKLKWDNQ; listed as Homo sapiens) [DynA 1-17]
DA uptake, LPS + Peptide 10^−13 [1]: 52.1 ± 6.2% of the control cultures | DA uptake, LPS + Peptide 10^−14 [1]: 58.0 ± 6.5% of the control cultures | DA uptake, LPS + Peptide 10^−15 [1]: 51.0 ± 9.4% of the control cultures

CCCC(=O)[O-].[Na+] [sodium butyrate, Sodium Butyrate]
neurotrophic effect (DA uptake) in neuron-glia culture [2]: pronounced neurotrophic effect | increase in DA uptake [3]: less than 2 fold

DynA 2-17: peptide fragment of Dynorphin A (YGGFLRRIRPKLKWDNQ), residues 2-17
DA uptake, LPS + Peptide 10^−13 [1]: 44.3 ± 8.2% of the control cultures | DA uptake, LPS + Peptide 10^−14 [1]: 62.7 ± 8.0% of the control cultures | DA uptake, LPS + Peptide 10^−15 [1]: 50.2 ± 6.9% of the control cultures
